The target of assay [1] is T1, Tissue alpha-L-fucosidase (Bos taurus) (UniProt Q2KIM0).
T1 sequence (whole entry): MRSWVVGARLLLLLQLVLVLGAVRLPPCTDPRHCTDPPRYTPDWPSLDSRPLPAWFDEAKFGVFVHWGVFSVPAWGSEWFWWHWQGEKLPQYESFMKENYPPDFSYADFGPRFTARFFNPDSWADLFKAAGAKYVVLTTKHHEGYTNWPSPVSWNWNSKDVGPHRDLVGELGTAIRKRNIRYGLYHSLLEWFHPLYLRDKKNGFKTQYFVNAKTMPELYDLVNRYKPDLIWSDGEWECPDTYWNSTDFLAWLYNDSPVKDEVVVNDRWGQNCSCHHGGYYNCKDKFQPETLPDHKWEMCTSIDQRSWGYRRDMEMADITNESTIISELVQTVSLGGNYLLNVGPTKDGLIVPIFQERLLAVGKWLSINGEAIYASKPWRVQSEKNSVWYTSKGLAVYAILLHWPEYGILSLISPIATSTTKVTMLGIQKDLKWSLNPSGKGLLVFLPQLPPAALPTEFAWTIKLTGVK
Nature of the assay: Inhibition of bovine alpha-L-fucosidase at 1000 uM.

Assay [2] has as its target T2, Beta-galactosidase (Bos taurus) (UniProt Q58D55).
T2 sequence (whole entry): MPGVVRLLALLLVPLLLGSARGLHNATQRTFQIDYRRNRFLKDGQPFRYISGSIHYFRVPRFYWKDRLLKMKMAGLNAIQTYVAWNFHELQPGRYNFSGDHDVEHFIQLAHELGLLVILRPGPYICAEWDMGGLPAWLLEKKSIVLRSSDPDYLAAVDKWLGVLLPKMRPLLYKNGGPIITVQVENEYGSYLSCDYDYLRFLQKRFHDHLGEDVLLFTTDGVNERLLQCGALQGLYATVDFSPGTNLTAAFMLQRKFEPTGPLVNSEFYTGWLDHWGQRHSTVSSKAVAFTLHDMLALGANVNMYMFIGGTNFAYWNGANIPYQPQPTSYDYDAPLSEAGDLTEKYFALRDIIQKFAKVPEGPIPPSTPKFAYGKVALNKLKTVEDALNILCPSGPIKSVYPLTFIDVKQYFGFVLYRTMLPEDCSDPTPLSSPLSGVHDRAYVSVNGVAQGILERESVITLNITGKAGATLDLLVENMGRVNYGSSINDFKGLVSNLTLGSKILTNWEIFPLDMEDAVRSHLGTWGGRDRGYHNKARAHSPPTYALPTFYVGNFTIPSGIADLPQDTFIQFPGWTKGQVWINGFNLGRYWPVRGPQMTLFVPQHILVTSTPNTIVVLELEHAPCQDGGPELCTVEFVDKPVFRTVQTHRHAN
Nature of the assay: Inhibition of bovine liver beta-galactosidase at 1000 uM.

The target of assay [3] is T3, Tissue alpha-L-fucosidase (Bos taurus, UniProt Q2KIM0).
T3 sequence (Q2KIM0 whole entry): T1 sequence (whole entry)
Kind of assay: Inhibition of bovine alpha-L-fucosidase.

By inhibition is commonly meant the percentage by which the read-out fell short of the control. With `O=C1CC[C@H](O)[C@H]2[C@@H](O)CN12`, the figures for the inhibition in assay [1] and in assay [2] were 0% and 13.4%, respectively.
A word on the IC50: it is the midpoint of a concentration-inhibition curve. For `OC[C@H]1NC[C@@H](O)[C@H](O)[C@@H]1O`, in assay [3], the IC50 is 194 µM. Besides, the inhibition in assay [2] worked out at 19.9%.

These data come from ChEMBL document CHEMBL2407027, “(3R,4S,5R,6R,7S)-3,4,5,7-Tetrahydroxyconidine, an azetidine analogue of 6,7-diepicastanospermine and a conformationally constrained d-deoxyaltronojirimycin, from l-arabinose” (Bioorg Med Chem, 2013).
